# Key:
# [1] = system: AML-12 hepatocyte cell line; experiment: Glutathione assay (total glutathione, GSH-Glo); format: cell-based, mouse; conditions: for EC50: Mus musculus, AML12, AML-12 cells, 24 hours, total glutathione, read-out: GSH EC50 (nM) (Mean ± SD); for GSH EC50 Relative to RTA 402 (fold) (Mean ± SD): benchmark RTA 402
# Description: The effect of compound treatment on total glutathione levels was evaluated in the mouse AML-12 hepatocyte cell line. Glutathione—a tripeptide consisting of cysteine, glutamate, and glycine—is the major thiol-containing protein within the cell and regulates cellular redox balance. Glutathione also plays important roles in detoxification, protein glutathionylation, and iron-sulfur cluster biogenesis (Bachhawat and Yadav, 2018). Nrf2 regulates the expression of many genes involved in glutathione synthesis and metabolism, including both subunits of glutamate cysteine ligase (GCL), the enzyme that catalyzes the rate limiting step of glutathione biosynthesis (Thimmulappa et al., 2002). […] The next day, cells were treated with vehicle (DMSO) or test compound (0.03 nM to 1000 nM). Each well received a final concentration of 0.1% DMSO. Cells were incubated at 37° C., 5% CO2 for 24 hours. Total glutathione concentrations were measured using the GSH-Glo Glutathione Assay kit (Promega) according to the manufacturer's instructions. Briefly, a standard curve was prepared by serially diluting the provided glutathione solution. […] After a 30-minute incubation at room temperature, 100 μL of Luciferin detection reagent was added to all sample and standard wells and incubated for 15 minutes. Luminescence was measured using a PHERAstar plate reader. The EC50 value was determined using Excel and GraphPad Prism software. The basal concentration of glutathione was set to 0% and the highest concentration of glutathione produced following treatment with a test compound was set to 100% and a dose-response curve was generated. The dose-response curve was fit using nonlinear regression analysis and used to extrapolate the EC50 value.
# [2] = system: AREc32 reporter cell line (antioxidant response element of rat Gsta2, Nrf2 target gene); experiment: AREc32 luciferase reporter activation; format: cell-based, human; conditions: for AREc32 EC2X Relative to RTA 402 (fold) (Mean ± SD): average of ratios from replicate experiments, benchmark RTA 402; for EC (2-fold): human, Arec32, 19 h, concentration increasing luminescence signal 2-fold above vehicle, nineteen hours, read-out: AREc32 EC2X (nM) (Mean ± SD); for AREc32 Relative to CC in Same Experiment (Mean ± SD): average of ratios from experiments with direct comparisons
# Description: […] The effect of several compounds disclosed herein on luciferase reporter activation was assessed in the AREc32 reporter cell line (see Table 10 and Table 11). This cell line is derived from human breast carcinoma MCF-7 cells and is stably transfected with a luciferase reporter gene under the transcriptional control of eight copies of the antioxidant response element from the rat Gsta2 gene, an Nrf2 target gene ([…] et al., 1990). […] Twenty-four hours after plating, cells were treated with vehicle (DMSO) or test compounds at concentrations ranging from 0.03 to 1000 nM for nineteen hours. Media was removed and 100 μL of 1:1 mixture of the One-Glo Luciferase assay reagent and culture medium was added to each well. After incubation for 5 min at room temperature, the luminescence signal was measured on a PHERAstar plate reader. The EC2X value was determined using Excel and GraphPad Prism software. The fold increase in luminescence signal for cells treated with each concentration of compound relative to cells treated with vehicle was determined and a dose-response curve was generated. The dose-response curve was fit using nonlinear regression analysis and used to extrapolate the EC2X value.
# RAW 264.7 cells = experiment: Nitric oxide suppression assay (IFNγ-induced NO production); format: cell-based, mouse; conditions: for IC50: Mus musculus, RAW264.7, RAW 264.7 cells, 2 h pretreatment, 20 ng/mL interferon gamma 24 h, nitrite by Griess, read-out: NO IC50 (nM) (Mean ± SD); for NO IC50 Relative to RTA 402 (fold) (Mean ± SD): average of ratios from replicate experiments, benchmark RTA 402
# Description: Tissue Culture. RAW 264.7, a mouse macrophage cell line, was obtained from American Type Culture Collection (Manassas VA) and maintained in the log phase of growth in Roswell Park Memorial Institute Medium 1640 (RPMI 1640) supplemented with 10% heat inactivated fetal bovine serum (FBS) and 1% penicillin-streptomycin. Cells were cultured and maintained in a humidified incubator at 37° C. under 5% CO2. Cells were sub-cultured every 3 days. […] All cell culture supplies were obtained from Life Technologies (Grand Island, NY) and VWR (Radnor, PA). Nitric Oxide Suppression Assay. RAW 264.7 cells were plated 1 day in advance of experimental treatments at a concentration of 30,000 cells per well onto Falcon-96 well clear bottom plates (Corning, NY) in a total volume of 200 μL per well using RPMI 1640 supplemented with 0.5% fetal bovine serum and 1% penicillin-streptomycin. The next day, cells were pretreated with compounds serially diluted from 1000× stocks. All compounds were dissolved in dimethyl sulfoxide (DMSO) at 10 mM stock solutions. Compounds were subsequently diluted in DMSO and RPMI 1640. Each well received a final concentration of 0.1% DMSO. Cells were pretreated for 2 hours and incubation at 37° C., followed by treatment with 20 ng/mL of interferon gamma (R&D Systems, Minneapolis, MN) per well for 24 hours. […] Afterwards, 50 μL of cell culture supernatant was transferred from each well into a new Falcon-96 well clear bottom plate. […] Afterwards, air bubbles were removed using ethanol vapor and absorbance was measured using a Spectramax M2e plate reader with a wavelength set to 525 nm. Viability was assessed using WST-1 cell proliferation reagent from Roche (Basel, Switzerland). After media was removed for the Nitric Oxide suppression assay, 15 μL of WST-1 reagent was added to each well of cells. Plates were briefly mixed on an orbital shaker and the cells were incubated at 37° C. for 30 minutes. Absorbance was measured using a Spectramax M2e plate reader with wavelengths set to 440 nm and 700 nm. For the ability of compounds to suppress the increase in nitric oxide release caused by interferon gamma, the absolute amount of nitrite that was produced in each well was extrapolated from the nitrite standards using a linear regression fit. All values were then normalized to the DMSO-interferon gamma treated wells and plotted as percent nitric oxide. IC50 values were calculated with a dependence on WST1 viability using Excel and/or GraphPad Prism (San Diego, CA).
Compound,EC50 [1],GSH EC50 Relative to RTA 402 (fold) (Mean ± SD) [1],AREc32 EC2X Relative to RTA 402 (fold) (Mean ± SD) [2],EC (2-fold) [2],IC50 (RAW 264.7 cells),NO IC50 Relative to RTA 402 (fold) (Mean ± SD) (RAW 264.7 cells),AREc32 Relative to CC in Same Experiment (Mean ± SD) ([2]; comparison compound CC2),AREc32 Relative to CC in Same Experiment (Mean ± SD) ([2]; comparison compound CC3)
CC1(C)CC[C@]2(c3noc(CO)n3)CC[C@]3(C)[C@H](C(=O)C=C4[C@@]5(C)C=C(C#N)C(=O)C(C)(C)[C@@H]5CC[C@]43C)[C@@H]2C1 [Compound T4],2.46 ± 1.8 nM,0.89 ± 0.61 fold,1.04 ± 0.02 fold,10.5 ± 1.03 nM,1.82 nM,0.48 ± 0.13 fold,,
CC1(C)CC[C@]2(c3noc(CCO)n3)CC[C@]3(C)[C@H](C(=O)C=C4[C@@]5(C)C=C(C#N)C(=O)C(C)(C)[C@@H]5CC[C@]43C)[C@@H]2C1 [Compound T5],1.77 ± 0.98 nM,0.65 ± 0.32 fold,1.16 ± 0.19 fold,11.7 ± 2.8 nM,1.57 nM,0.42 ± 0.15 fold,,
COCCc1nc([C@]23CCC(C)(C)C[C@H]2[C@H]2C(=O)C=C4[C@@]5(C)C=C(C#N)C(=O)C(C)(C)[C@@H]5CC[C@@]4(C)[C@]2(C)CC3)no1 [Compound T6],2.9 ± 0.96 nM,1.07 ± 0.28 fold,1.77 ± 0.15 fold,17.66 ± 0.1 nM,2.95 ± 0.11 nM,0.79 ± 0.29 fold,,
CC1(C)CC[C@]2(c3nnn(CCO)n3)CC[C@]3(C)[C@H](C(=O)C=C4[C@@]5(C)C=C(C#N)C(=O)C(C)(C)[C@@H]5CC[C@]43C)[C@@H]2C1 [Compound T7],2.87 ± 3.17 nM,0.80 ± 0.59 fold,1.10 ± 0.33 fold,10.5 ± 3.66 nM,1.13 ± 0.18 nM,0.43 ± 0.13 fold,,
CC1(C)CC[C@]2(c3nnn(CCF)n3)CC[C@]3(C)[C@H](C(=O)C=C4[C@@]5(C)C=C(C#N)C(=O)C(C)(C)[C@@H]5CC[C@]43C)[C@@H]2C1 [Compound T10],1.45 ± 0.17 nM,1.14 ± 0.03 fold,2.41 ± 0.98 fold,28.4 ± 9.42 nM,2.2 ± 0.2 nM,1.62 ± 0.16 fold,,
CC1(C)CC[C@]2(c3nc(CCO)no3)CC[C@]3(C)[C@H](C(=O)C=C4[C@@]5(C)C=C(C#N)C(=O)C(C)(C)[C@@H]5CC[C@]43C)[C@@H]2C1 [Compound T13],2.04 ± 1.94 nM,0.55 ± 0.33 fold,0.37 ± 0.04 fold,3.53 ± 0.98 nM,0.56 nM,0.22 ± 0.07 fold,0.44 ± 0.07,
CC1(C)CC[C@]2(c3nc(CCN)no3)CC[C@]3(C)[C@H](C(=O)C=C4[C@@]5(C)C=C(C#N)C(=O)C(C)(C)[C@@H]5CC[C@]43C)[C@@H]2C1 [Compound T16],0.58 ± 0.04 nM,0.46 ± 0.09 fold,0.30 ± 0.00 fold,3.56 ± 0.31 nM,1.26 ± 0.12 nM,0.94 ± 0.19 fold,,
Cc1nc([C@]23CCC(C)(C)C[C@H]2[C@H]2C(=O)C=C4[C@@]5(C)C=C(C#N)C(=O)C(C)(C)[C@@H]5CC[C@@]4(C)[C@]2(C)CC3)no1 [Compound T20],1.66 ± 0.66 nM,0.96 ± 0.15 fold,1.50 ± 0.18 fold,21.5 ± 2.85 nM,3.79 nM,1.30 ± 0.26 fold,,
Cn1nnc([C@]23CCC(C)(C)C[C@H]2[C@H]2C(=O)C=C4[C@@]5(C)C=C(C#N)C(=O)C(C)(C)[C@@H]5CC[C@@]4(C)[C@]2(C)CC3)n1 [Compound T21],3.18 ± 2.22 nM,0.95 ± 0.34 fold,1.67 ± 0.15 fold,16.2 ± 4.2 nM,1.89 ± 0.67 nM,0.76 ± 0.36 fold,,
CC1(C)CC[C@]2(c3nc(C(F)(F)F)no3)CC[C@]3(C)[C@H](C(=O)C=C4[C@@]5(C)C=C(C#N)C(=O)C(C)(C)[C@@H]5CC[C@]43C)[C@@H]2C1 [Compound T22],17.6 ± 0.59 nM,8.72 ± 1.98 fold,3.45 ± 0.69 fold,54.6 ± 8.83 nM,23.9 nM,7.71 ± 2.33 fold,,
CCc1noc([C@]23CCC(C)(C)C[C@H]2[C@H]2C(=O)C=C4[C@@]5(C)C=C(C#N)C(=O)C(C)(C)[C@@H]5CC[C@@]4(C)[C@]2(C)CC3)n1 [Compound T23],3.26 ± 0.51 nM,2.05 ± 0.44 fold,1.43 ± 0.26 fold,20.2 ± 2.51 nM,4.85 nM,1.93 ± 0.54 fold,2.41 ± 0.42,
CCc1nc([C@]23CCC(C)(C)C[C@H]2[C@H]2C(=O)C=C4[C@@]5(C)C=C(C#N)C(=O)C(C)(C)[C@@H]5CC[C@@]4(C)[C@]2(C)CC3)no1 [Compound T24],6.11 ± 2.23 nM,2.53 ± 0.52 fold,2.50 ± 0.66 fold,32.2 ± 2.59 nM,9.21 nM,2.56 ± 0.62 fold,,
CC1(C)CC[C@]2(c3noc(C4CC4)n3)CC[C@]3(C)[C@H](C(=O)C=C4[C@@]5(C)C=C(C#N)C(=O)C(C)(C)[C@@H]5CC[C@]43C)[C@@H]2C1 [Compound T25],9.07 ± 1.55 nM,3.36 ± 0.34 fold,4.39 ± 0.23 fold,44 ± 1.2 nM,11.2 ± 2.09 nM,3.08 ± 1.54 fold,,
C[C@@H]1C(=O)C(C#N)=C[C@]2(C)C3=CC(=O)[C@@H]4[C@@H]5CC(C)(C)CC[C@]5(c5nc(C(F)F)no5)CC[C@@]4(C)[C@]3(C)CC[C@@H]12 [Compound T35],1.99 ± 0.42 nM,1.02 ± 0.04 fold,0.73 ± 0.14 fold,10.7 ± 1.02 nM,5.48 ± 3.04 nM,1.21 ± 0.21 fold,,1.66 ± 0.31

# — patent US12344631B2, “C17 polar-substituted heteroaromatic synthetic triterpenoids and methods of use thereof” (REATA PHARMACEUTICALS, INC., priority 2019, dated 2025)
